Here are results for 3 compounds from article PMC3445516 (PLoS ONE, 2012).

For one test, the target named is PKCδ (Homo sapiens, UniProt Q05655). Put plainly: Ambit kinase profiling, competition binding. As to conditions: for competition: PKC δ, 10 µM. Set-up: purchased Ambit Biosciences (KINOMEscan). As to the method:
(§1) Also included in the kinase profile are four isoforms of PKC (δ, ε, η, θ) and eight isoforms of CAMKs (CAMKIα, δ, γ; CAMKIIα, β, δ, γ; CAMK4).
(§2) The global kinase profiling experiment was performed by Ambit Biosciences.

A further test has as its system EGFR(L747-T751del,Sins). Nature of the test: Ambit kinase profiling, competition binding. Also noted: species or system human. As to conditions: for % Competition: 10 µM. As to the method:
as §1, §2

Test [1] addresses T1, recombinant GST-tagged human protein kinase D1 (PKD1) (Homo sapiens, UniProt Q15139).
T1 construct: purchased Enzo Life sciences (Farmingdale, NY)
T1 sequence (Q15139 1-912): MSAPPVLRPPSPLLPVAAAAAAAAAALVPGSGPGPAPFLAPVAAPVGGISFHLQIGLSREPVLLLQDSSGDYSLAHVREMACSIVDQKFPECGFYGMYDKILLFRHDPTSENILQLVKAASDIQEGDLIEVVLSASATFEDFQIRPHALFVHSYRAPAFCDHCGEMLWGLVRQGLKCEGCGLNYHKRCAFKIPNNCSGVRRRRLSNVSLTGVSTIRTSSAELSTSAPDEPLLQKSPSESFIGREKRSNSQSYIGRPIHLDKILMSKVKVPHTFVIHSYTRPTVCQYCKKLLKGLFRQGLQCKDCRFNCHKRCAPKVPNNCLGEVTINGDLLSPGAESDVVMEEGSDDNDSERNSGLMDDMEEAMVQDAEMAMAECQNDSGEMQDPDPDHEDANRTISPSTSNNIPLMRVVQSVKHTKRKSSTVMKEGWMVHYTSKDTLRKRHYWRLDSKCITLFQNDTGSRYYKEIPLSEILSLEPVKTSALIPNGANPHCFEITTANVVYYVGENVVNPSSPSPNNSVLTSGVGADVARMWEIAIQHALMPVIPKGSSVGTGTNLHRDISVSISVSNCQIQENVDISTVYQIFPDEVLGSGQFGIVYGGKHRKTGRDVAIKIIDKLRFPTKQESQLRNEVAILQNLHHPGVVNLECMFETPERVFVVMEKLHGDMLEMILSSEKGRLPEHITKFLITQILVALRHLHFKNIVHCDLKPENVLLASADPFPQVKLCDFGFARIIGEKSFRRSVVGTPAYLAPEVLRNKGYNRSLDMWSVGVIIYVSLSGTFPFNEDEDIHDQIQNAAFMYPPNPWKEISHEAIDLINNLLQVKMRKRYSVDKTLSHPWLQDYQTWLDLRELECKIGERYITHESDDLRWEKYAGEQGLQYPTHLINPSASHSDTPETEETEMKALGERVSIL
Nature of the test: In vitro radiometric PKD1 kinase assay. The format is biochemical. As to conditions: read-out: Inhibition of PKD1. As to the method: All compounds were given distinct UPCMLD (University of Pittsburgh Center for Chemical Methodologies and Library Development) IDs and were then assigned numerical IDs for convenient data display. Evaluation of each compound was carried out in triplicate at a single concentration (1 µM). Our previously described PKD1 inhibitor, kb-NB142-70, and DMSO (solvent alone) were used as positive and negative controls, respectively. Percent residual kinase activity was calculated based on that of the negative control (DMSO).
Kinase active recombinant GST-tagged human protein kinase D1 (PKD1) was obtained from Enzo Life sciences (Farmingdale, NY). DMSO was purchased from Sigma. Recombinant PKCα, PKCδ and CAMKIIα were obtained from SignalChem (Richmond, BC, Canada). ATP was purchased from Fisher Scientific. HDAC5 substrate peptide was synthesized by Biobasic Canada Inc. (Markham, ON). Myelin basic protein 4–14 was purchased from AnaSpec Inc. (Fremont, CA). The targeted kinase inhibitor library was obtained from Hoffmann-La Roche, Inc.
1.2 µg of HDAC-5 was used as substrate in the reaction. Phosphorylation of HDAC5 was detected in a kinase reaction having 1 µCi [γ-^32P] […] The reaction was incubated at 30° for 10 minutes and 25 µL of the reaction was spotted on Whatman P81 filter paper. The filter paper was washed 3 times in 0.5% phosphoric acid, air dried and counted using Beckman LS6500 multipurpose scintillation counter. Percent PKD1 inhibition was graphed using GraphPad Prism software 5.0.

The target in another test is T2, EPHA8 (Homo sapiens, UniProt P29322).
T2 construct: purchased Ambit Biosciences (KINOMEscan)
T2 sequence (P29322 28-1005): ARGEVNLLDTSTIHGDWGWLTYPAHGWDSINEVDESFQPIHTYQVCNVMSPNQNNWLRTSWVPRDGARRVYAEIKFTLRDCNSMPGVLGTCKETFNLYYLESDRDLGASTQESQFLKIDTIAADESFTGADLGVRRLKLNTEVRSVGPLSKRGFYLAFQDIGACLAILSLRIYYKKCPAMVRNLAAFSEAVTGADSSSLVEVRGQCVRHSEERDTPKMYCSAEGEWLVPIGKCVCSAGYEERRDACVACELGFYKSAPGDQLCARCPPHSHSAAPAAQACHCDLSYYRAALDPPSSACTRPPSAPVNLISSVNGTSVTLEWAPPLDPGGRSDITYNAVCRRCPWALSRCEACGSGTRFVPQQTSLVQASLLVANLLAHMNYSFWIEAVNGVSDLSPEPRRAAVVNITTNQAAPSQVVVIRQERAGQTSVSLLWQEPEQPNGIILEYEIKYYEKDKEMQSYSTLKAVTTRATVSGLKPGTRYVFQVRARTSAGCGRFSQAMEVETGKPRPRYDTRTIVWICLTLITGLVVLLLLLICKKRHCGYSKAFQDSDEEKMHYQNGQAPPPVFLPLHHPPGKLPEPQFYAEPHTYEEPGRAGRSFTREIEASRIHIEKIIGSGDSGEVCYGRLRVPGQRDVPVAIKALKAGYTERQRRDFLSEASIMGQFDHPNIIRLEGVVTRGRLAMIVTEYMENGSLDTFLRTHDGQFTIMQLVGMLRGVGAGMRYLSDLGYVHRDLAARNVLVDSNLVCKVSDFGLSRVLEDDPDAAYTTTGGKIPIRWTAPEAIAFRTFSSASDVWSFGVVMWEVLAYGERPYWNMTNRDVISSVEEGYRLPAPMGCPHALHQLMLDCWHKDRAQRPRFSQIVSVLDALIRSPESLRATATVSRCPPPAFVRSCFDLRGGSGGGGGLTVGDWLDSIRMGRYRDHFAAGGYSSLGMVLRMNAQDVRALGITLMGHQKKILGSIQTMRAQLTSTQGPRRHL
Put plainly: Ambit kinase profiling, competition binding. As to the method:
as §1, §2

Like-named read-outs stand apart in the source and are kept apart here.

PKCδ, sequence (Q05655 whole entry, canonical isoform): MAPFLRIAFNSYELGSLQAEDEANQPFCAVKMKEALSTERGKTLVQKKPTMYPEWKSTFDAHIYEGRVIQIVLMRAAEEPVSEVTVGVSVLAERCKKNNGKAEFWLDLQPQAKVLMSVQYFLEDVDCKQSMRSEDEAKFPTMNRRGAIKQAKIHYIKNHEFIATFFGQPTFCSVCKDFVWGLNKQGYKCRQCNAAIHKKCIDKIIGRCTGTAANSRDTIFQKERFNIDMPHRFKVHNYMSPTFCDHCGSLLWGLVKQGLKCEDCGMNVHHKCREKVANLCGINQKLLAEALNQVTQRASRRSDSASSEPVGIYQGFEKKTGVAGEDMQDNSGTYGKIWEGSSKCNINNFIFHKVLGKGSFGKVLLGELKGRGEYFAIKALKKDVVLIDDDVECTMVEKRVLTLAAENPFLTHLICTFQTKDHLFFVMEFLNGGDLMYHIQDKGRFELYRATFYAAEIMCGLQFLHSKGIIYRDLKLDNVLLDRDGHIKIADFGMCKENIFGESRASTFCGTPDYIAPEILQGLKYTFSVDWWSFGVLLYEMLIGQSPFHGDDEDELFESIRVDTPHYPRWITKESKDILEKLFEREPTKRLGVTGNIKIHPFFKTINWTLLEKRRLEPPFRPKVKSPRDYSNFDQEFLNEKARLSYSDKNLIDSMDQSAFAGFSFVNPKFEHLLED

Regarding `Fc1ccc(-c2c(-c3ccncc3)[nH]c3nccnc23)cc1` [Compound 122], on PKCδ, the competition is less than 50%. In addition, in the test on EGFR(L747-T751del,Sins), the “% Competition” value is 97%. For the same compound, the inhibition at 1 µM in test [1] (1 µM, triplicate determinations) turned out to be 62%. In addition, the inhibition at 10 µM on EPHA8 (EPHA8, 10 µM, read-out: % Competition) was 71%.
In the case of `Fc1ccc(-c2c(-c3ccncc3)[nH]c3nccnc23)cc1` [RO1155697-000-005], the inhibition at 10 µM at PKCδ (PRKCD, compound concentration 10 uM, read-out: Percent Competition) is less than 50%; on EPHA8 (EPHA8, compound concentration 10 uM, read-out: Percent Competition), 71%. The “Percent Competition” value with EGFR(L747-T751del,Sins) (compound concentration 10 uM) worked out at 97%.
For `CC(O)CNc1cc(-c2[nH]c3cccnc3c2-c2ccc(F)cc2)ccn1` (centres unmarked) [Compound 140], the competition at PKCδ was less than 50%. The “% Competition” value with EGFR(L747-T751del,Sins) came to 90%. In addition, the inhibition at 1 µM in test [1] turned out to be 80%. For the same compound, on EPHA8 (read-out: % Competition), the inhibition at 10 µM was less than 50%.
